Source: publication PMC5913127 (Scientific Reports, 2018)

What was measured:
aducanumab = assay: ELISA of aducanumab on plates coated with truncated Aβ peptides; format: binding, human; conditions: for EC50: aducanumab on peptide coated or captured at 5 μg/mL (multivalent effects), antibody from 100 nM, 2 h room temperature, read-out: Binding activity (EC50); for Fold reduction (relative to Aβ1-42): reduction of aducanumab binding affinity, peptide 5 μg/mL
Procedure: For N-terminally truncated Aβ peptides, untagged peptides were used. For ELISA, 96-well microplates were coated with 5 μg/mL peptide in Coating Buffer (15 mM Na2CO3, 35 mM NaHCO3, pH 9.6) overnight at 4 °C. Plates were washed and non-specific binding sites were blocked with 2% BSA in PBS for 1 h at 25 °C. Serially diluted antibody starting from 100 nM in Assay Buffer (2% BSA in PBS) was added, and the plates were incubated for 2 h at room temperature. Binding was determined by incubation with an HRP-conjugated goat anti-human polyclonal antibody (Jackson ImmunoResearch) followed by measurement of HRP activity using Ultra TMB ELISA Colorimetric Substrate Solution (Thermo Fisher Scientific). For C-terminally truncated Aβ peptides, biotin-conjugated peptides were used. The biotin was attached synthetically to the C terminus of the protein by incorporation of a non-native lysine residue. For ELISA, biotin-conjugated peptides were incubated for 1 h at room temperature, at a concentration of 5 μg/mL in Assay Buffer, using plates that were pre-coated with neutravidin (Thermo Fisher Scientific, Reacti-Bind plates). Plates were washed, antibodies diluted serially in Assay Buffer were added, and binding was measured as described above.

Aβ (Monomer, Aggregate) = conditions: A = aggregate, M = monomer; ref [9]–[19],[54] as given per antibody in column Ref. of Table 1; cited from earlier work

Substance	EC50 (aducanumab)	Fold reduction (relative to Aβ1-42) (aducanumab)	Fold reduction (relative to Aβ1-42) (aducanumab; listed as Aβ5-42)	Aβ selectivity (Monomer, Aggregate) (Aβ (Monomer, Aggregate))
8–42: untagged N-terminally truncated Aβ peptide	150 nM	400 fold	–	–
5–42: untagged N-terminally truncated Aβ peptide	36 nM	96 fold	> 40 fold	–
solanezumab: anti-Aβ clinical candidate antibody; mouse analog m266	–	–	–	M ≫ A
6–42: untagged N-terminally truncated Aβ peptide	140 nM	390 fold	–	–
